Tests used:
[1] = molecular target: T1, GST-hCAR-LBD (Homo sapiens, UniProt Q14994); assay: LanthaScreen TR-FRET PGC1α coactivator recruitment assay; type: biochemical
T1 construct: GST-hCAR-LBD (5 nM), terbium-labeled anti-GST antibody (5 nM); purchased Invitrogen A15141
T1 sequence (Q14994 109-352 limits assumed): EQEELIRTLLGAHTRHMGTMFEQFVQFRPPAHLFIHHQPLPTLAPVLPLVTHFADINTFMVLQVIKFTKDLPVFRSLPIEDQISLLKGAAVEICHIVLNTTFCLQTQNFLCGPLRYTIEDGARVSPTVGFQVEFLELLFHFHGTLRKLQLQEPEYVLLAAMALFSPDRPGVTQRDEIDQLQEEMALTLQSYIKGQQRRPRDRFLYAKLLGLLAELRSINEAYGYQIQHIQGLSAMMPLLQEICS
Experimental: LanthaScreen^TM TR-FRET hCAR coactivator assays were performed according to manufacturer’s instructions (Invitrogen, A15141). Test compounds were incubated for 2 h at room temperature with GST-hCAR-LBD (5 nM), terbium-labeled anti-GST antibody (5 nM), and Fluorescein-PGC1α coactivator peptide (125 nM). Incubations were performed in four technical replicates. TR-FRET emissions were measured using a Tecan Infinite F200 Fluorescence Microplate Reader. Results were expressed as the ratio of fluorescence intensity at 520 nm (fluorescein emission excited by terbium emissions) and 495 nm (terbium emissions).

[2] = molecular target: T2, hCAR (Homo sapiens, UniProt Q14994); assay: Bottom-up HDX-MS of hCAR with ligand; type: binding; settings: 100 µM ligand
T2 construct: The human CAR LBD (Lys^108 – Ser^352) was amplified by PCR from cDNA; HIS6; made in house; host or cells: E. coli BL21(DE3)
T2 sequence (Q14994 108-352): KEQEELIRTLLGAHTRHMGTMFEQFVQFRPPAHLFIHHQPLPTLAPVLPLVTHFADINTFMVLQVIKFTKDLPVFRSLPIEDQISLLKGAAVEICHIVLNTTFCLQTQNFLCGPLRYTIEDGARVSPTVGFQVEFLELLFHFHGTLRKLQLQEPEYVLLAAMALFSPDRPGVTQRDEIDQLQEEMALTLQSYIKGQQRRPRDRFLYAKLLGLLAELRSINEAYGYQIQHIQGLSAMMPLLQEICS
Experimental: Human CAR protein was prepared at 10 µM in 100 mM ammonium acetate pH 7.25 and diluted into either equilibration buffer (10 mM phosphate buffer, pH 7.5) or deuterated reaction buffer (10 mM phosphate buffer, 150 mM NaCl, pH 7.5 in D2O). After labeling times of 1, 10 or 30 min at 25 °C, samples were mixed with equal volumes of quench buffer (100 mM phosphate buffer, pH 2.5) at 0 °C. […] HDX-MS was performed using a commercial Waters HDX system (M-class ACQUITY UPLC and Water Cyclic IMS Mass Spectrometer). Leucine enkephalin was used for mass correction, and all time points were carried out in triplicate. Samples were digested using an Enzymate BEH Pepsin column (2.1 × 30 mm, Waters) at 15 °C. Peptides were desalted on an ACQUITY UPLC BEH C18 VanGuard Pre-column (2.1 × 5 mm, Waters) and separated using an ACQUITY UPLC BEH C18 column (100 × 1 mm, Waters). ProteinLynx Global server (PLGS) and DynamX software was used for peptide identification and deuterium uptake analysis, respectively. PyMOL 2.5 was used for structural visualization.

## CC(c1c[nH]c2ccccc12)c1c[nH]c2ccccc12 [DIE, 3,3’-diindolylethane]
[1]
  PGC1α cofactor recruitment: does not
[2]
  deuterium uptake change, residues 235–243 (H12/AF2): increased uptake
  deuterium uptake difference, amino acids 217–234 (H11): < 10%
  difference in deuterium uptake compared to apo hCAR, amino acids 51–65 (H3): > 20%

— article PMC10960024, “Diindoles produced from commensal microbiota metabolites function as endogenous CAR/Nr1i3 ligands” (Nature Communications, 2024)
